Data taken from patent US11602510B2, “Agent for use in the treatment of dyslipidemia” (Flexopharm Brain GMBH & Co. KG, priority 2017, dated 2023).
“Also recorded” adds a separate entry of the source. Read-outs that look alike come from different tables or passages of the source.

Key:
HMG-CoA synthase = HMG-CoA synthase mRNA expression by reverse transcriptase-polymerase chain reaction; format: in vivo; details: RT-PCR, FIG. 5
PCSK9 = PCSK9 expression by reverse transcriptase-polymerase chain reaction; format: in vivo; details: RT-PCR, FIG. 7
LDL receptor = LDL receptor expression by reverse transcriptase-polymerase chain reaction in the liver; format: in vivo; details: RT-PCR in the liver following treatment, FIG. 8
[1] = test system: hypercholesterolemic mouse model; experiment: LDL cholesterol in the hypercholesterolemic mouse model (high fat diet); format: in vivo
Text: HF: High Fat (60 KJ % fat content); PA: Propionic Acid. […] HFD: High Fat Diet; PA: Propionic Acid.

[2] = test system: patients with dyslipidemia; experiment: LDL cholesterol in patients with dyslipidemia treated with propionic acid; format: in vivo, human; details: n=24, initial LDL cholesterol >110 mg/dl, after 2-6 months of treatment, FIG. 4
[3] = test system: patients whose LDL cholesterol level had been adjusted to a stable level by atorvastatin; experiment: Patient study: propionate added to stable atorvastatin treatment, LDL value; format: in vivo, human; details: for LDL value / LDL cholesterol level (in words): 2×500 mg propionate for more than eight weeks in addition to atorvastatin, five patients, FIG. 9
Procedure: The decrease appears to be greatest in patients showing the highest initial LDL value,
FIG. 10 is a block diagram showing the result of a patient study. On the left, the diagram indicates the averaged initial value of the patients stable through administration of atorvastatin, on the right the averaged LDL value of the patients after taking 2×500 mg of propionate daily for at least eight weeks.
The patient study attests to the positive influence of 2×500 mg of sodium propionate in addition to atorvastatin.

HMG-CoA reductase = HMG-CoA reductase expression by reverse transcriptase-polymerase chain reaction; format: in vivo; details: RT-PCR, FIG. 6
pigs = details: comparatively higher doses; cited from earlier work
patients = details: high doses, cited from earlier work
[4] = test system: rats with normal and cholesterol-rich diets; details: cited from earlier work
rats = details: oral and rectal administration of high doses; cited from earlier work

SMILES	expression of HMG-CoA synthase at mRNA level (HMG-CoA synthase)	expression of PCSK9 (PCSK9)	expression of the LDL receptor (LDL receptor)	LDL cholesterol ([1]; propionate alone, High Fat (60 KJ % fat content), FIG. 2)	LDL cholesterol ([1]; propionic acid additionally administered to atorvastatin, High Fat Diet, FIG. 3)	cholesterol-lowering effect (LDL cholesterol) [2]	reduction of the LDL value on average ([3]; 2×500 mg propionate daily for at least eight weeks on top of stable atorvastatin, FIG. 10) [%]	LDL value / LDL cholesterol level (in words) [3]	expression of HMG-CoA synthase at mRNA level (HMG-CoA synthase; listed as Propionate)	expression of HMG-CoA reductase (HMG-CoA reductase)	expression of HMG-CoA reductase (HMG-CoA reductase; listed as Propionate)	expression of PCSK9 (PCSK9; listed as Propionates)	cholesterol concentration in back fat (pigs)	cholesterol content in the liver (pigs)	total cholesterol (pigs)	serum cholesterol level (patients; one case)	HDL serum cholesterol concentration (patients; second case)	total cholesterol ([4]; rats consuming cholesterol-rich food, about 100 mg per day)	total cholesterol ([4]; rats fed a normal diet)	liver cholesterol levels (rats)
CC(C)c1c(C(=O)Nc2ccccc2)c(-c2ccccc2)c(-c2ccc(F)cc2)n1CC[C@@H](O)C[C@@H](O)CC(=O)O [atorvastatin, reference compound]	but not by atorvastatin	increased expression; also recorded: increase in PCSK9 expression	Neither the propionic acid nor the atorvastatin has an effect	–	–	–	–	–	–	–	–	–	–	–	–	–	–	–	–	–
CCC(=O)O [propionic acid, Propionic acid]	negatively regulated; also recorded: reduced expression	no influence	Neither the propionic acid nor the atorvastatin has an effect	reduction of LDL cholesterol	trend towards further reduction of LDL cholesterol	cholesterol-lowering effect	~40	the LDL value was reduced	significantly down-regulated; also recorded: much more pronounced than that of atorvastatin	negatively regulated; also recorded: reduced expression	significantly down-regulated	do not have an effect	significantly higher cholesterol concentration	slight increase	reduced total cholesterol	slight reduction	increased	–	–	–
CCC(=O)[O-].[Na+] [sodium propionate]	–	–	–	–	–	–	–	further significantly reduced	–	–	–	–	–	–	–	–	–	significant reduction in total cholesterol	practically no effect	only insignificantly
